From the supplement of paper PMC12076712

Assays:
Experiment in all cases: pIC50, kinobeads binding competition
Settings in all cases: cell material: Jurkat lysate
RIPK3 = RIPK3 (UniProt Q9Y572)
STK33 = STK33 (UniProt Q9BYT3)
UniProt P19784 = target: UniProt P19784
UniProt P49841 = target: UniProt P49841
PRKG2 = target: T1, PRKG2 (UniProt Q13237)
T1 sequence (whole entry): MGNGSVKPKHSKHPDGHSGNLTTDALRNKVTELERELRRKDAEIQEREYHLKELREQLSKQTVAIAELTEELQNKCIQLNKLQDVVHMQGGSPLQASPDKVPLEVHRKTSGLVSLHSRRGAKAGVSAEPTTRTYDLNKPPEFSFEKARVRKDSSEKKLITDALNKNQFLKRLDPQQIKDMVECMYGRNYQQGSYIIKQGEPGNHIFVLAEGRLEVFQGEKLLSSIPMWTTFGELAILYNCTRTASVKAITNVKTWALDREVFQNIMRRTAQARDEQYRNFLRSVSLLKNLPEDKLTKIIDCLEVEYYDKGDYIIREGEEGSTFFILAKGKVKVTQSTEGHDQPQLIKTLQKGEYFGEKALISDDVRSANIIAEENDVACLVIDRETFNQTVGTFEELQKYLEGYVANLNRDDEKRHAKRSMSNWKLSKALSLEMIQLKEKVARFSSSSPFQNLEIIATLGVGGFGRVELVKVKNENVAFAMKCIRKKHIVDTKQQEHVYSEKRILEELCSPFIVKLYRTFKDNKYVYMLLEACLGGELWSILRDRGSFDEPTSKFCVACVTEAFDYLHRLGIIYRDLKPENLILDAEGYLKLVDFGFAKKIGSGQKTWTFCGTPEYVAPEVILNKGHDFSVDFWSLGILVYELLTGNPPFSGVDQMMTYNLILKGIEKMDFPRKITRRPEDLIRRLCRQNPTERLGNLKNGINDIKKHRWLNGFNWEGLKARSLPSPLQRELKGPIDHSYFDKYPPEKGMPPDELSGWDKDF

IRAK4 = target: T2, IRAK4 (UniProt Q9NWZ3)
T2 sequence (whole entry): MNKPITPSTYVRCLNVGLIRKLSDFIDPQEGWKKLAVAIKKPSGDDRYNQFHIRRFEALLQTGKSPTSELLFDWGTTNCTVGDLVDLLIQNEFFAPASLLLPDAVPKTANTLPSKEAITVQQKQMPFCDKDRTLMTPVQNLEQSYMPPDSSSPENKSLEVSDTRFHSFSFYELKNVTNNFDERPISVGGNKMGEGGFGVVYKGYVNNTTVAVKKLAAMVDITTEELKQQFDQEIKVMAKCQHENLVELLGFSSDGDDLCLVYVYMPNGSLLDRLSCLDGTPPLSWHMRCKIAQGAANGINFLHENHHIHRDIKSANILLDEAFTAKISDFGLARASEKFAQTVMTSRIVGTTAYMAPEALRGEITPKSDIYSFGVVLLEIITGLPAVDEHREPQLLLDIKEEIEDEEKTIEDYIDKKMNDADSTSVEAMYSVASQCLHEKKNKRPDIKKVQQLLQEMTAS

ACVR1 = target: T3, ACVR1 (UniProt Q04771)
T3 sequence (whole entry): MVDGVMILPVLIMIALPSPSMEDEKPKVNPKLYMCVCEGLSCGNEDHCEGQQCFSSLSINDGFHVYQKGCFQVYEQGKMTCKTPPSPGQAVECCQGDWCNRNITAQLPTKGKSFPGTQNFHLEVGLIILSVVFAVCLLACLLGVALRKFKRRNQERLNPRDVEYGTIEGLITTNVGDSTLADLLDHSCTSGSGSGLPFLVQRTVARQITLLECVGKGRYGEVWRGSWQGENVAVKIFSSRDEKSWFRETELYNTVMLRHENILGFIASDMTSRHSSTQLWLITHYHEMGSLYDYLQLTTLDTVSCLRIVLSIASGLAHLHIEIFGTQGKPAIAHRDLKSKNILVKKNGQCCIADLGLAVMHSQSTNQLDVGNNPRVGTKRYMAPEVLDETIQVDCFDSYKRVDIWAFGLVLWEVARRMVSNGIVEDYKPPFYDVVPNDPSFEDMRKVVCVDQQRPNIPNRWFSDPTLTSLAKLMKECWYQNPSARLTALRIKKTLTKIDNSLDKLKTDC

UniProt P46734 = target: T4, UniProt P46734
T4 sequence (whole entry): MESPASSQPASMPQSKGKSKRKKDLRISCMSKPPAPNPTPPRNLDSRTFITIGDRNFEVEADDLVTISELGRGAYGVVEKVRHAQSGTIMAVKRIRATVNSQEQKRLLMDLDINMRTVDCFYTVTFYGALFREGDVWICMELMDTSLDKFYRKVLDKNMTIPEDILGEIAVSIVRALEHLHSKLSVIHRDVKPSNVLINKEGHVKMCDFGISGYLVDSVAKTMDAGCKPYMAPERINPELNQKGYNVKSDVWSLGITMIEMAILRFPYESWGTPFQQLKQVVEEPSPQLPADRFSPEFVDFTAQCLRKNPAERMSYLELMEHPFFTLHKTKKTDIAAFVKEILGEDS

HIPK3 = HIPK3 (UniProt Q9H422)
NEK7 = NEK7 (UniProt Q8TDX7)
BLK = BLK (UniProt P51451)

pIC50 (RIPK3): < 4.52
pIC50 (STK33): < 4.52
pIC50 (UniProt P19784): < 4.52
pIC50 (UniProt P49841): < 4.52
pIC50 (PRKG2): < 4.52
pIC50 (IRAK4): < 4.52
pIC50 (ACVR1): < 4.52
pIC50 (UniProt P46734): < 4.52
pIC50 (HIPK3): < 4.52
pIC50 (NEK7): < 4.52
pIC50 (BLK): < 4.52
Structure (SMILES): CCc1cnn2c(NCc3ccc[n+]([O-])c3)cc(N3CCCC[C@H]3CCO)nc12 [dinaciclib]
